Laboratory results from paper PMC12029309, “Synthesis and Antifungal Activity of 1,2,4-Oxadiazole Derivatives” (Molecules, 2025).
In brackets after ≈: the same amount, converted by molar mass. Read-outs that look alike come from different tables or passages of the source.

Assays:
E. turcicum = experiment: Mycelial growth inhibition test in vitro (E. turcicum); type: cell-based; conditions: Exserohilum turcicum; for EC50: read-out: EC50 (μg/mL) E. turcicum; for inhibition at 50 µg/mL: 50 μg/mL, mean ± SD of three replicates, read-out: The Inhibition Rate (%) E. turcicum
F. graminearum = experiment: microbe, parasite or virus in culture; type: cell-based; conditions: Fusarium graminearum; for EC50: read-out: EC50 (μg/mL) F. graminearum; for inhibition at 50 µg/mL: read-out: The Inhibition Rate (%) F. graminearum
B. cinerea = experiment: Mycelial growth inhibition test in vitro (B. cinerea); type: cell-based; conditions: Botrytis cinerea; 50 μg/mL, mean ± SD of three replicates; read-out: The Inhibition Rate (%) B. cinerea
Experimental: (§1) The antifungal activity of the target compound was tested by the mycelial growth inhibition rate method. The compounds were detected at a concentration of 50 μg/mL, and carbendazim was used as the positive control. The antifungal activity was carried out according to literature reports. After drilling the mycelium (3 mm), it was inoculated into the PDA medium containing compounds, and the Petri dish was put into the incubator at 25 °C for 12-48 h; then, the colony diameter was measured with 50 index vernier caliper by the cross method, and the data were recorded. […] • A: The average diameter of the blank medium colony. • B: Diameter of mushroom cake (3 mm). • C: The average diameter of the colonies in the medium containing compound.

C. capsica [1] = experiment: Antifungal activity in vivo: protective effect on detached pepper infected by C. capsica; design: species or system Colletotrichum capsica
Experimental: The protective effects of compounds 4q and 4f and carbendazim on pepper infected by […] studied. […] The peppers were washed with water and dried, and the surface was wiped with 75% ethanol for sterilization. The infected area was pricked with a diameter of 4 mm on the surface of the green pepper with a sterile inoculation needle. After spraying the antifungus compound solution on the surface and resting for 12 h, the activated cake (4 mm in diameter) was inoculated into the infected area. After culturing at 25 °C for 1 to 7 days, the plaque diameter was measured by the cross method, and the efficacy was calculated according to Formula (2).(2) Control efficacy%=A-B/A-C×100% • A: The average diameter of the blank medium colony. • B: The average diameter of the colonies in the medium containing compound. • C: Diameter of mushroom cake (3 mm/4 mm).

R. solani = experiment: microbe, parasite or virus in culture; type: cell-based; conditions: Rhizoctonia solani; for EC50: read-out: EC50 (μg/mL) R. solani; for inhibition at 50 µg/mL: read-out: The Inhibition Rate (%) R. solani
C. capsica [2] = experiment: Mycelial growth inhibition test in vitro (C. capsica); type: cell-based; conditions: Colletotrichum; for EC50: read-out: EC50 (μg/mL) C. capsica; for inhibition at 50 µg/mL: 50 μg/mL, mean ± SD of three replicates, read-out: The Inhibition Rate (%) C. capsica
Experimental: as §1, with “compound. […] The PDA medium containing different concentrations of the compound was prepared by the two-fold dilution method, the final concentration of the compound in the medium was adjusted to 0-100.00 μg/mL, and three parallel samples were set for each concentration. […] The toxicity regression equation of the tested compound was obtained, taking the logarithm of compound concentration (lgc) as the independent variable (x) and the probability value of inhibition rate as the dependent variable (y), and the EC50 value of each tested compound was calculated.” for “compound.”

[3] = MTT cytotoxicity evaluation on MCF-7 cells; type: cell-based; conditions: human, range 0~100 μM
Experimental: (§2) Cells were incubated at 37 °C in an incubator with 5% CO2. Cell viability was determined using the MTT assay. Briefly, MCF-7 cell lines were seeded at 5000–8000 cells/well in 96-well plates. […] Following a continuous 24 h of incubation, the culture medium was replaced by 90 μL fresh culture medium, and 10 μL MTT solution was added.

MCF-7 cell line = experiment: MTT cytotoxicity evaluation on MCF-7 cells; type: cell-based; conditions: 100 μM, 24 h
Experimental: as §2

Structure (SMILES) | EC50 (E. turcicum) [µg/mL] | inhibition at 50 µg/mL (E. turcicum) [%] | EC50 (F. graminearum) [µg/mL] | inhibition at 50 µg/mL (F. graminearum) [%] | inhibition at 50 µg/mL (B. cinerea) [%] | Control efficacy (%) (C. capsica [1]; 500 μg/mL, 5 days) | Control efficacy (%) (C. capsica [1]; 1000 μg/mL, 3 day) | EC50 (R. solani) [µg/mL] | inhibition at 50 µg/mL (R. solani) [%] | EC50 (C. capsica [2]) [µg/mL] | inhibition at 50 µg/mL (C. capsica [2]) [%] | Control efficacy (%) (C. capsica [1]; 1000 μg/mL, 5 days) | IC50 at 24 h [3] [µM] | EC50 (C. capsica [2]; mycelial growth, 0–100.00 μg/mL two-fold dilution) [µg/mL] | cell survival rate of MCF-7 cells (MCF-7 cell line)
Oc1ccc(-c2nc(-c3ccccc3)no2)cc1O [Compound 4f, 4-(3-Phenyl-1,2,4-oxadiazol-5-yl) benzene-1,2-diol] | 29.1 (≈ 115 µM) | 85.7 ± 1.97 | 30 (≈ 118 µM) | 100 | 38.9 ± 5.35 | 100 | 100 | 12.7 (≈ 49.9 µM) | 80.9 ± 2.4 | 8.81 (≈ 34.7 µM) | 86.8 ± 3.11 | – | – | – | –
COc1ccc(-c2noc(-c3ccc(O)c(O)c3)n2)cc1OC [Compound 4q, 4-(3-(3,4-Dimethoxyphenyl)-1,2,4-oxadiazol-5-yl)benzene-1,2-diol] | 229 (≈ 729 µM) | 43.5 ± 0.99 | 149 (≈ 475 µM) | 43.5 ± 3.7 | 32.8 ± 12.2 | 50.12 | – | 38.9 (≈ 124 µM) | 47.8 ± 8.13 | 41.7 (≈ 133 µM) | 55.5 ± 1.34 | 76.83 | ≥ 100 | – | –
COC(=O)Nc1nc2ccccc2[nH]1 [carbendazim, reference compound] | 110 (≈ 573 µM) | – | 19.6 (≈ 102 µM) | – | – | 100 | – | 1.1 (≈ 5.75 µM) | – | – | – | 100 | – | 0.22 (≈ 1.15 µM) | –
COc1ccc(-c2noc(/C=C/c3ccccc3)n2)cc1OC [Compound 5e, (E)-3-(3,4-Dimethoxyphenyl)-5-styryl-1,2,4-oxadiazole] | – | 29.4 ± 2.05 | – | 28.7 ± 5.14 | 30.6 ± 1.43 | – | – | – | 23.9 ± 0.59 | – | < 10 | – | – | – | significant cell proliferation
